In publication PMC4712073 (Analytical and bioanalytical chemistry, 2015):
Where two headings read alike, the source gives them in different places. Blank lines part the entries; values can stand above or below the molecule they belong to.

Assays:
[1] = molecular target: T1, SIRT5 (Homo sapiens, UniProt Q9NXA8); conditions: reported as SIRT5 inhibitor; cited from earlier work
T1 sequence (Q9NXA8 37-310): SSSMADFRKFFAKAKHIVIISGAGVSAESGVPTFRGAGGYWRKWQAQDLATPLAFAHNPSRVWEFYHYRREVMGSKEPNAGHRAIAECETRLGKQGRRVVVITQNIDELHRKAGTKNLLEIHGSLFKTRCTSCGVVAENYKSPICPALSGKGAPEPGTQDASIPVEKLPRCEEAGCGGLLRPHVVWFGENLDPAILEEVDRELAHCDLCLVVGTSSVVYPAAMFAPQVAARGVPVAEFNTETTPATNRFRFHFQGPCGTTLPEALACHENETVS

[2] = molecular target: T1, SIRT5; test: Peptide-based SIRT5 desuccinylation assay by droplet microchip electrophoresis; type: biochemical

Compound: N#C/C(=C\c1ccc(-c2cc(Cl)ccc2Cl)o1)C(=O)Nc1cccc2ncccc12 [AGK-2]
IC50 [1]: > 100 µM

Compound: CCCCCC[C@H]1C(=O)O[C@H](C)[C@H](NC(=O)c2cccc(NC=O)c2O)C(=O)O[C@@H](C)[C@@H]1OC(=O)CC(C)C [antimycin A]
IC50 ([2]; Prestwick hits, dose-response analysis 0.1 to 100 µM): near the maximum tested dose

SIRT5 inhibition (in words) ([2]; pilot screening, chosen as positive control (10 µM)): potent inhibitor
Compound: CCCCCCCCCCCCCCCc1cccc(O)c1C(=O)O [anacardic acid]
